Data taken from patent US11661430B2, “Tetrazole derivatives as TRPA1 inhibitors” (Boehringer Ingelheim International GmbH, priority 2020, dated 2023).

Experiments:
[1] = Assay B: Microsomal clearance; type: in vitro ADME, human; conditions: pooled liver microsomes, 1 μM test compound, 37° C., NADPH
Procedure: Assay B: Microsomal Clearance:
The metabolic degradation of the test compound is assayed at 37° C. with pooled liver microsomes. The final incubation volume of 100 μl per time point contains TRIS buffer pH 7.6 at RT (0.1 M), magnesium chloride (5 mM), microsomal protein (1 mg/ml) and the test compound at a final concentration of 1 μM.
Following a short preincubation period at 37° C., the reactions are initiated by addition of beta-nicotinamide adenine dinucleotide phosphate, reduced form (NADPH, 1 mM) and terminated by transferring an aliquot into solvent after different time points (0, 5, 15, 30, 60 min). Additionally, the NADPH-independent degradation is monitored in incubations without NADPH, terminated at the last time point. The [%] remaining test compound after NADPH independent incubation is reflected by the parameter c(control) (metabolic stability). The quenched incubations are pelleted by centrifugation (10000 g, 5 min). An aliquot of the supernatant is assayed by LC-MS/MS for the amount of parent compound. The half-life (t½ INVITRO) is determined by the slope of the semilogarithmic plot of the concentration-time profile.
The intrinsic clearance (CL_[…]) is calculated by considering the amount of protein in the incubation: CL_[…] [μl/min/mg protein]=(Ln 2/(half-life [min]*protein content [mg/ml]))*1000 CL_[…]_INVIVO [ml/min/kg]=(CL_[…] [μL/min/mg protein]×MPPGL [mg protein/g liver]×liver factor [g/kg bodyweight])/1000 Qh[%]=CL[ml/min/kg]/hepatic blood flow [ml/min/kg])
(§1) Hepatocellularity, human: 120×10e6 cells/g liver
(§2) Liver factor, human: 25.7 g/kg bodyweight
(§3) Blood flow, human: 21 ml/(min×kg)

[2] = Assay C: Hepatocyte clearance; type: in vitro ADME, human; conditions: hepatocyte suspension, 1 μM test compound, 5% species serum, six hours
Procedure: Assay C: Hepatocyte Clearance
The metabolic degradation of the test compound is assayed in a hepatocyte suspension. Hepatocytes (cryopreserved) are incubated in Dulbecco's modified eagle medium (supplemented with 3.5 μg glucagon/500 mL, 2.5 mg insulin/500 mL and 3.75 mg/500 mL hydrocortison) containing 5% species serum.
The cells are incubated for six hours (incubator, orbital shaker) and samples (25 μl) are taken at 0, 0.5, 1, 2, 4 and 6 hours. Samples are transferred into acetonitrile and pelleted by centrifugation (5 min). The supernatant is transferred to a new 96-deepwell plate, evaporated under nitrogen and resuspended.
Decline of Parent Compound is Analyzed by HPLC-MS/MS
CLint is calculated as follows CL_[…]=Dose/AUC=(CO/CD)/(AUD+clast/k)×1000/60. C0: initial concentration in the incubation [μM], CD: cell density of vital cells [10e6 cells/mL], AUD: area under the data [μM×h], clast: concentration of last data point [μM], k: slope of the regression line for parent decline [h−1].
The calculated in vitro hepatic intrinsic clearance can be scaled up to the intrinsic in vivo hepatic Clearance and used to predict hepatic in vivo blood clearance (CL) by the use of a liver model (well stirred model). CL_[…]_INVIVO [ml/min/kg]=(CL_[…] [μL/min/10e6 cells]×hepatocellularity [10e6 cells/g liver]×liver factor [g/kg bodyweight])/1000 CL[ml/min/kg]=CL_[…]_INVIVO [ml/min/kg]×hepatic blood flow [ml/min/kg]/(CL_[…]_INVIVO [ml/min/kg]+hepatic blood flow [ml/min/kg]) Qh[%]=CL[ml/min/kg]/hepatic blood flow [ml/min/kg])
as §1, §2, §3

human TRPA1 ion channel = molecular target: T1, human TRPA1 ion channel (Homo sapiens, UniProt O75762); test: Assay A: TRPA1 assay (FLIPR, AITC-induced intracellular calcium in HEK293 cells); type: cell-based; conditions: HEK293 cells over-expressing human TRPA1, AITC 10 μM, FLIPRtetra; read-out: hTRPA1 IC50
T1 construct: host or cells: HEK293
Procedure: A human HEK293 cell line over-expressing the human TRPA1 ion channel (Perkin Elmer, Product No. AX-004-PCL) is used as a test system for compound efficacy and potency. Compound activity is determined by measuring the effect of compounds on intracellular calcium concentration induced by AITC (Allylisothiocyanat) agonism in a FLIPRtetra system (Molecular Devices).
The cells are obtained as frozen cells in cryo-vials and stored until use at −150° C. Cells are grown in culture medium (MEM/EBSS medium with 10% FCS and 0.4 mg/ML Geneticin). […] For sub-culturing cells are detached from flasks by Versene. At the day before the assay, cells are detached, washed twice with medium (MEM/EBSS medium with 10% FCS) and 20000 cells in 20 μl/well are seeded to Poly D-Lysin biocoated 384-well plates (black, clear bottom, Cat. 356697) from Corning. Plates are incubated for 24 hours at 37° C./5% CO2 before use in the assay.
The test compounds are dissolved in 100% DMSO at a concentration of 10 mM and in a first step diluted in DMSO to a concentration of 5 mM, followed by serial dilution steps in 100% DMSO. Dilution factor and number of dilution steps may vary according to needs. Typically 8 different concentrations by 1:5 dilutions are prepared, further intermediate dilutions (1:20) of the substances are carried out with HBSS/HEPES buffer (1×HEPES, Cat. 14065 from Gibco, 20 mM HEPES, Cat. 83264 from SIGMA, 0.1% BSA Cat. 11926 from Invitrogen, pH 7.4
At the assay day cells are washed 3× with assay puffer, 20 μL buffer remaining in the wells after washing. 10 μL Ca6 kit (Cat. R8191 Molecular Devices) loading buffer in HBSS/HEPES is added to the cells and the plates are incubated with lid for 120 minutes at 37°/5% CO2. […] Finally 10 μL of the agonist AITC 50 μM dissolved in HBSS/HEPES buffer/0.05% DMSO (final concentration 10 μM) is added to the wells followed by an additional read on the FLIPRtetra device for 10 minutes. The area under the signal curve (AUC) after AITC addition is used for IC50/% inhibition calculations
Data Evaluation and Calculation:
Each assay microtiter plate contains wells with vehicle (1% DMSO) controls instead of compound as controls for AITC induced luminescence (100% CTL; high controls) and wells with vehicle controls without AITC as controls for non-specific changes in luminescence (0% CTL; low controls).
The analysis of the data is performed by the calculation of the area under signal curve of the individual wells. Based on this values the % value for the measurement of each substance concentration is calculated (AUC(sample)−AUC(low))*100/(AUC(high)−AUC(low)) using MegaLab software (in house development). The IC50 values are calculated from the % control values using MegaLab software. Calculation: [y=(a−d)/(1+(x/c)^b)+d], a=low value, d=high value; x=conc M; c=IC50 M; b=hill; y=% ctrl

T1 sequence (O75762 whole entry): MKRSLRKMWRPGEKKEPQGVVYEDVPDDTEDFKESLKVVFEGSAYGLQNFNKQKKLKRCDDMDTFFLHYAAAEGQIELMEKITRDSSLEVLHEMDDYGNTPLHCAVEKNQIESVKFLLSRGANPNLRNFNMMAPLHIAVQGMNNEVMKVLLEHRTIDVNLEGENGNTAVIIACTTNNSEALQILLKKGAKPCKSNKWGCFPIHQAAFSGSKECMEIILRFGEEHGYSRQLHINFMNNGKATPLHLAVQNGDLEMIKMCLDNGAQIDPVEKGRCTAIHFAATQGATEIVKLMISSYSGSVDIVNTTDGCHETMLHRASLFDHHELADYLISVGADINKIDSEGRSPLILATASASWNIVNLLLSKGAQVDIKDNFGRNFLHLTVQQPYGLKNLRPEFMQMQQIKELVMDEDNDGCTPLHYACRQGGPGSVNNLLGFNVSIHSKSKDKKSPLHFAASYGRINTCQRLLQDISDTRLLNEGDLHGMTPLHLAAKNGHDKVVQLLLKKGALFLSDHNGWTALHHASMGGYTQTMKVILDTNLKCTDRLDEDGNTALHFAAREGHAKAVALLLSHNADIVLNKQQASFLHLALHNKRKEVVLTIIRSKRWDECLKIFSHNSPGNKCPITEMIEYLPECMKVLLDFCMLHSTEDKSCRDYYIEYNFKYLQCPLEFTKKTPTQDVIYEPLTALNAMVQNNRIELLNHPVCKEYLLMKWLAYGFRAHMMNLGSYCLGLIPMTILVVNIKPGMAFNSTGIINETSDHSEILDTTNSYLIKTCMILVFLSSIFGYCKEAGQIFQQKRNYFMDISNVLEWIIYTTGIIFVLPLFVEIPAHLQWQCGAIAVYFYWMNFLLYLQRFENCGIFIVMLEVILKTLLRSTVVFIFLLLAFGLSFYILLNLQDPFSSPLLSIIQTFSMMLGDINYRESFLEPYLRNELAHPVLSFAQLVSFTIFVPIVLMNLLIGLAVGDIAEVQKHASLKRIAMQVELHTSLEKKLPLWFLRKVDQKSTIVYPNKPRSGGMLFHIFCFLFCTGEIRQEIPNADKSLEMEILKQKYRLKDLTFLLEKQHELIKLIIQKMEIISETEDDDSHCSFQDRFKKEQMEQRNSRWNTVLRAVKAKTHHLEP

| human LM [% Qh] [1] | human Hepatocytes [% Qh] [2] | IC50 (human TRPA1 ion channel) | SMILES |
| --- | --- | --- | --- |
| 33 % Qh | 19 % Qh | – | NC(=O)c1csc2ncn(Cc3nnn(C[C@H](O)c4cc5ccc(F)cc5s4)n3)c(=O)c12 [Example 2] |
| <23 % Qh | 6 % Qh | – | NC(=O)c1csc2ncn(Cc3nnn(C[C@H](O)c4ccc5oc(F)cc5c4)n3)c(=O)c12 [Example 4] |
| 28 % Qh | 20 % Qh | – | NC(=O)c1csc2ncn(Cc3nnn(C[C@H](O)c4cc5ccccc5s4)n3)c(=O)c12 [Example 5] |
| <23 % Qh | 26 % Qh | – | NC(=O)c1csc2ncn(Cc3nnn(C[C@H](O)c4cc5cc(F)ccc5o4)n3)c(=O)c12 [Example 6] |
| 34 % Qh | 41 % Qh | – | NC(=O)c1csc2ncn(Cc3nnn(C[C@H](O)c4cc(Cl)c(Cl)s4)n3)c(=O)c12 [Example 7] |
| <23 % Qh | 14 % Qh | 31 nM | NC(=O)c1csc2ncn(Cc3nnn(C[C@H](O)c4ccc(Cl)s4)n3)c(=O)c12 [Example 11] |
| <23 % Qh | <4 % Qh | 143 nM | N#Cc1ccc([C@@H](O)Cn2nnc(Cn3cnc4scc(C(N)=O)c4c3=O)n2)s1 [Example 18] |

More lines, now with the values behind:

| SMILES | human LM [% Qh] [1] | human Hepatocytes [% Qh] [2] | IC50 (human TRPA1 ion channel) |
| --- | --- | --- | --- |
| NC(=O)c1csc2ncn(Cc3nnn(C[C@H](O)c4ccc(Cl)cc4)n3)c(=O)c12 [Example 1, 3-({2-[(2R)-2-(4-chlorophenyl)-2-hydroxyethyl]-2H-1,2,3,4-tetrazol-5-yl}methyl)-4-oxo-3H,4H-thieno[2,3-d]pyrimidine-5-carboxamide] | <23 % Qh | <4 % Qh | 28 nM |
| NC(=O)c1csc2ncn(Cc3nnn(C[C@H](O)c4cc5cc(Cl)ccc5o4)n3)c(=O)c12 [Example 3] | 27 % Qh | 26 % Qh | – |
| NC(=O)c1csc2ncn(Cc3nnn(C[C@H](O)c4cc5cc(Cl)c(F)cc5o4)n3)c(=O)c12 [Example 8] | 26 % Qh | 20 % Qh | 26 nM |
| NC(=O)c1csc2ncn(Cc3nnn(C[C@H](O)c4cc5ccccc5o4)n3)c(=O)c12 [Example 9] | <23 % Qh | 14 % Qh | 29 nM |
| Cc1ccc([C@@H](O)Cn2nnc(Cn3cnc4scc(C(N)=O)c4c3=O)n2)cc1 [Example 10] | <23 % Qh | 8 % Qh | 31 nM |
| NC(=O)c1csc2ncn(Cc3nnn(C[C@H](O)c4ccc(Br)cc4)n3)c(=O)c12 [Example 12] | <23 % Qh | <4 % Qh | 34 nM |
| NC(=O)c1csc2ncn(Cc3nnn(C[C@H](O)c4cc5cc(F)c(F)cc5o4)n3)c(=O)c12 [Example 13] | <23 % Qh | 10 % Qh | 37 nM |
| NC(=O)c1csc2ncn(Cc3nnn(C[C@H](O)c4cc5cccc(F)c5o4)n3)c(=O)c12 [Example 14] | <23 % Qh | 14 % Qh | 41 nM |
| NC(=O)c1csc2ncn(Cc3nnn(C[C@H](O)c4cc5cc(F)c(Cl)cc5o4)n3)c(=O)c12 [Example 15] | <23 % Qh | 30 % Qh | 65 nM |
| N#Cc1cc2ccc([C@@H](O)Cn3nnc(Cn4cnc5scc(C(N)=O)c5c4=O)n3)cc2o1 [Example 16] | <23 % Qh | 19 % Qh | 70 nM |
| COc1ccc([C@@H](O)Cn2nnc(Cn3cnc4scc(C(N)=O)c4c3=O)n2)cc1 [Example 17] | <23 % Qh | 18 % Qh | 131 nM |
